Experiment [1] deals with CMA (DNA, G4) TAGGGAGGGTAGGGAGGGT
The experiment is described as follows: gel mobility shift. The settings on record: 100 mM K+; 40 µM CMA, 80 µM compound.

In experiment [2] the test system is biotinylated Tel48 (DNA, G4) TTAGGGTTAGGGTTAGGGTTAGGGTTAGGGTTAGGGTTAGGGTTAGGG
Description: bio-layer interferometry, kinetic. The settings on record: 100 mM K+; 10 mM Tris, 25 °C; two-site model, Kb = ka/kd; immobilised Tel48. For orientation: BLI is a label-free optical method that tracks binding on a fibre tip over time.

Experiment [3] has as its system Tel48 (DNA, G4) TTAGGGTTAGGGTTAGGGTTAGGGTTAGGGTTAGGGTTAGGGTTAGGG
Description: CD, ligand-induced G4 formation. The settings on record: no K+; Tris buffer, 25 °C; 4 µM Tel48, 8 µM compound.

For experiment [4] the test system is unchanged. The experiment is described as follows: CD melting. The settings on record: 100 mM K+; 10 mM Tris-HCl pH 7.5; compound concentration not stated.
In experiment [5] the test system is LD12 (DNA, duplex) GCGCAATTGCGC
Description: fluorescence enhancement; pre-stained gel. The settings on record: 100 mM K+; 15 µM H33258, 15 µM LD12.

As for `CN(C)c1ccc(Nc2c3ccc(NC(=O)CCN4CCCC4)cc3nc3cc(NC(=O)CCN4CCCC4)ccc23)cc1`, the binding entry in experiment [1] and in experiment [3] was “yes” in each case. In experiment [2], this molecule had a Kb of 9.84e+06 M⁻¹.

On to `CN1CCN(c2ccc3nc(-c4ccc5nc(-c6ccc(O)cc6)[nH]c5c4)[nH]c3c2)CC1`, for which the dTm in experiment [4] was ~ 4 °C. Further, the binding result in experiment [5] is on record as “yes”.

Take `C[n+]1ccc(-c2c3nc(c(-c4cc[n+](C)cc4)c4ccc([nH]4)c(-c4cc[n+](C)cc4)c4nc(c(-c5cc[n+](C)cc5)c5ccc2[nH]5)C=C4)C=C3)cc1`: the binding entry in experiment [1] and in experiment [3] was “yes” each time. In experiment [2], the Kb worked out at 1.55e+07 M⁻¹. In experiment [4], the dTm was ~ 10 °C.

In the case of `C[n+]1ccccc1/C=C/c1ccc2[nH]c3ccc(/C=C/c4cccc[n+]4C)cc3c2c1`, the binding result in experiment [1] and in experiment [3] was “yes” in each case. Besides, in experiment [2], the Kb came out at 2.38e+06 M⁻¹.

Consider `C[n+]1ccnc(/C=C/c2ccc3[nH]c4ccc(/C=C/c5c[n+](C)ccn5)cc4c3c2)c1`, for which, in experiment [1], the binding result is recorded as “yes”. This molecule yielded a Kb in experiment [2] of 529000 M⁻¹.

As for `NCCOc1cc(C(=O)Nc2cc(OCCN)c3ccccc3n2)nc(C(=O)Nc2cc(OCCN)c3ccccc3n2)c1`, the binding result in experiment [3] is reported as “yes”. Moreover, in experiment [4], the dTm is ~ 2 °C.

Values taken from publication PMC6337594 (2018).
